From patent US20230057359A1, “NOVEL USE OF STEVIOL” (SUNTORY HOLDINGS LIMITED, priority 2019, published 2023)

Assays:
[1] = tested on: HepG2 cells; test: Fat accumulation test in hepatocytes (oil red staining, oleic acid); assay type: cell-based; conditions: for Relative fat accumulation level (%): 0.2 mM oleic acid, 24 hours, DMSO=100%
Description: Normal human subcutaneous preadipocytes were precultured using the growth medium in the same manner as in Example 1. The cells were detached using 0.25% trypsin-EDTA, seeded at 10,000 cells/100 μL/well to a 96-well plate using a growth medium, and cultured overnight in a CO2 incubator. On the next day, the medium was replaced with 100 μL of a differentiation medium supplemented with varying concentrations of steviol (12.5, 25, 50, 100 or 200 μg/mL, dissolved in 0.1% DMSO (final concentration)). The cells were cultured for 10 days in a CO2 incubator to induce their differentiation into adipocytes. On the fourth and seventh days after the differentiation induction, the medium was replaced with a fresh medium (100 μL) having the same composition as above. A differentiation medium supplemented with 25 mM LiCl (Cat. No. SML0559, Sigma-Aldrich Co., LLC) was used as a positive control, and a differentiation medium supplemented with 0.1% DMSO (final concentration) was used as a negative control. Cells cultured in a growth medium were used as an untreated control (Untreated). The cells thus cultured were subjected to oil red staining. Specifically, the cells were washed twice with 100 μL of DPBS (Cat. No. 14190250, Thermo Fisher Scientific Inc.). Then, the cells were fixed (room temperature, 10 min) in 100 μL of a 10% formalin solution (Cat. No. 061-00416, FUJIFILM Wako Pure Chemical Corp.). The cells were washed twice with 100 μL of DPBS, then incubated for 1 minute in 100 μL of 60% 2-propanol (Cat. No. 166-04836, FUJIFILM Wako Pure Chemical Corp.) that replaced the medium, and stained for 15 minutes in 100 μL of an oil red staining solution (Cat. No. 00625, Sigma-Aldrich Co., LLC) that replaced the 2-propanol solution. The cells were washed once with 100 μL of 60% 2-propanol and washed twice with 100 μL of DPBS. Then, cell images were taken in 100 μL of DPBS. After subsequent replacement with 120 μL of 100% 2-propanol, oil red was extracted by incubation for 5 minutes, and 100 μL of the extracts was transferred to each well of a fresh 96-well plate. Absorbance (520 nm) was measured using a plate reader (VARIOSKAN FLASH, Thermo Fisher Scientific Inc.), and a relative fat accumulation level was calculated. Significant difference of differentiation non-induced group vs differentiation induced group (negative control group) was tested (two-tailed), and P<0.05 was regarded as having significant difference. Also, significant difference of negative control group vs steviol addition group/positive control group was tested (two-tailed) by the Dunnett test, and P<0.05 was regarded as having significant difference. […] HepG2 cells were precultured using the growth medium in the same manner as in Example 5. The cells were detached using 0.25% trypsin-EDTA, seeded at 30,000 cells/100 μL/well to a 96-well plate using the growth medium, and cultured overnight in a CO2 incubator. On the next day, the medium was replaced with 100 μL of a test medium (DMEM (high glucose) supplemented with 0.2 mM oleic acid (Cat. No. 03008, Sigma-Aldrich), 10% FBS and 1% penicillin-streptomycin) supplemented with varying concentrations of steviol (12.5, 25, 50, 100 or 200 μg/mL, dissolved in 0.1% DMSO (final concentration)). The cells were cultured for 24 hours in a CO2 incubator. A test medium supplemented with 2 mM metformin (Cat. No. M2009, Tokyo Chemical Industry Co., Ltd.) was used as a positive control (Metformin), and a vehicle control composed of a test medium supplemented with 0.1% DMSO (final concentration) was used as a negative control (DMSO). Cells cultured in a test medium containing no oleic acid was used as an untreated control (Untreated). The cells thus cultured were subjected to oil red staining in the same manner as in Example 3, followed by photographing and calculation of a relative fat accumulation level. […]

[2] = tested on: normal human subcutaneous preadipocytes differentiated into adipocytes; test: Fat accumulation test in adipocytes (oil red staining); assay type: cell-based; conditions: for Relative fat accumulation level (%): 10 days, DMSO=100%
Description: Normal human subcutaneous preadipocytes were precultured using the growth medium in the same manner as in Example 1. The cells were detached using 0.25% trypsin-EDTA, seeded at 10,000 cells/100 μL/well to a 96-well plate using a growth medium, and cultured overnight in a CO2 incubator. On the next day, the medium was replaced with 100 μL of a differentiation medium supplemented with varying concentrations of steviol (12.5, 25, 50, 100 or 200 μg/mL, dissolved in 0.1% DMSO (final concentration)). The cells were cultured for 10 days in a CO2 incubator to induce their differentiation into adipocytes. On the fourth and seventh days after the differentiation induction, the medium was replaced with a fresh medium (100 μL) having the same composition as above. A differentiation medium supplemented with 25 mM LiCl (Cat. No. SML0559, Sigma-Aldrich Co., LLC) was used as a positive control, and a differentiation medium supplemented with 0.1% DMSO (final concentration) was used as a negative control. Cells cultured in a growth medium were used as an untreated control (Untreated). The cells thus cultured were subjected to oil red staining. Specifically, the cells were washed twice with 100 μL of DPBS (Cat. No. 14190250, Thermo Fisher Scientific Inc.). Then, the cells were fixed (room temperature, 10 min) in 100 μL of a 10% formalin solution (Cat. No. 061-00416, FUJIFILM Wako Pure Chemical Corp.). The cells were washed twice with 100 μL of DPBS, then incubated for 1 minute in 100 μL of 60% 2-propanol (Cat. No. 166-04836, FUJIFILM Wako Pure Chemical Corp.) that replaced the medium, and stained for 15 minutes in 100 μL of an oil red staining solution (Cat. No. 00625, Sigma-Aldrich Co., LLC) that replaced the 2-propanol solution. The cells were washed once with 100 μL of 60% 2-propanol and washed twice with 100 μL of DPBS. Then, cell images were taken in 100 μL of DPBS. After subsequent replacement with 120 μL of 100% 2-propanol, oil red was extracted by incubation for 5 minutes, and 100 μL of the extracts was transferred to each well of a fresh 96-well plate. Absorbance (520 nm) was measured using a plate reader (VARIOSKAN FLASH, Thermo Fisher Scientific Inc.), and a relative fat accumulation level was calculated. Significant difference of differentiation non-induced group vs differentiation induced group (negative control group) was tested (two-tailed), and P<0.05 was regarded as having significant difference. Also, significant difference of negative control group vs steviol addition group/positive control group was tested (two-tailed) by the Dunnett test, and P<0.05 was regarded as having significant difference.

Q: What does the source list for C=C1C[C@@]23CC[C@H]4[C@@](C)(CCC[C@@]4(C)C(=O)O)[C@@H]2CC[C@]1(O)C3 [Steviol, steviol]?
A: fat accumulation in HepG2 test (in words) ([1]; 12.5 to 200 μg/mL): suppressed fat accumulation in adipocytes in a concentration-dependent manner; Relative fat accumulation level (%) ([1]; steviol 12.5 μg/mL): 98.9%; Relative fat accumulation level (%) ([1]; steviol 25 μg/mL): 98.1%; Relative fat accumulation level (%) ([1]; steviol 50 μg/mL): 86.4%; Relative fat accumulation level (%) ([1]; steviol 100 μg/mL): 85.6%; Relative fat accumulation level (%) ([1]; steviol 200 μg/mL): 83.0%; fat accumulation in adipocytes (in words) ([2]; 12.5 to 200 μg/mL): suppressed fat accumulation in adipocytes in a concentration-dependent manner; Relative fat accumulation level (%) ([2]; steviol 12.5 μg/mL): 98.3%; Relative fat accumulation level (%) ([2]; steviol 25 μg/mL): 91.3%; Relative fat accumulation level (%) ([2]; steviol 50 μg/mL): 80.7%; Relative fat accumulation level (%) ([2]; steviol 100 μg/mL): 70.8%; Relative fat accumulation level (%) ([2]; steviol 200 μg/mL): 40.0%
